Laboratory results published in patent publication US4163058A, “Derivatives of 5,5-diphenylhydantoin exhibiting enhanced solubility and the therapeutic use thereof” (INTERX Research Corporation, priority 1977, dated 1979).
Like-named read-outs stand apart in the source and are kept apart here.

Columns and labels:
[1] = 37° C.; cited from earlier work
[2] = cited from earlier work
[3] = aqueous; comparison value for the parent; cited from earlier work
[4] = aqueous solubility (compound added in increments to water until solubility was determined); type: physicochemical
Protocol: The compound was added in increments to water until solubility was determined.

[5] = in vivo; cited from earlier work
[6] = oral, sodium salt; due to alkalinity of the dosage form; cited from earlier work
[7] = in vivo, iv; cited from earlier work

Compound: O=C1NC(=O)C(c2ccccc2)(c2ccccc2)N1 [5,5-diphenylhydantoin]
- solubility [1]: less than 2 mg. in 100 ml
- release patterns ([2]; both in vitro and in vivo): often produces unpredictable and erractic release patterns
- bioavailability ([2]; per se as well as from pharmaceutical dosage forms): low bioavailability
- solubility of the parent specie [3]: less than 0.02 mg/ml

Compound: CN(C)CC(=O)OCN1C(=O)NC(c2ccccc2)(c2ccccc2)C1=O [3-(N,N-dimethylglycyloxymethyl)diphenylhydantoin methanesulfonate]
- solubility ([4]; in water): > 100 mg/mL
- increase in aqueous solubility over diphenylhydantoin ([4]; versus diphenylhydantoin per se): ~5,000 fold

Compound: O=C1NC(=O)C(c2ccccc2)(c2ccccc2)N1.[Na]
- precipitation at the injection site and release [5]: precipitate 5,5-diphenylhydantoin at the injection site leading to delayed and erractic 5,5-diphenylhydantoin release
- gastric irritation [6]: frequently causes gastric irritation
- precipitation and blood levels [7]: frequently leads to precipitation of 5,5-diphenylhydantoin as well as erractic blood levels
